Assay results taken from PubChem BioAssay (NCI).
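Compound exposure: 48 hours, 5 concentrations, 96-well plates. TGI: total growth inhibition.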

Legend:
Test in all cases: NCI anticancer screen, dose series, 48 h
SK-MEL-28 melanoma = system: SK-MEL-28 melanoma
PC-3 prostate = system: PC-3 prostate
K-562 leukemia = system: K-562 leukemia
OVCAR-5 ovarian = system: OVCAR-5 ovarian
UACC-257 melanoma = system: UACC-257 melanoma
MDA-N = system: MDA-N
HL-60(TB) leukemia = system: HL-60(TB) leukemia
MCF7 breast = system: MCF7 breast
SNB-19 CNS = system: SNB-19 CNS
T-47D breast = system: T-47D breast
SN12C renal = system: SN12C renal
SR leukemia = system: SR leukemia
DU-145 prostate = system: DU-145 prostate
EKVX NSCLC = system: EKVX NSCLC
NCI-H23 lung = system: NCI-H23 lung
HT29 colon = system: HT29 colon
MDA-MB-231 breast = system: MDA-MB-231 breast
OVCAR-8 ovarian = system: OVCAR-8 ovarian
IGROV1 ovarian = system: IGROV1 ovarian
NCI/ADR-RES ovarian = system: NCI/ADR-RES ovarian
SF-268 CNS = system: SF-268 CNS
A498 renal = system: A498 renal
SF-539 CNS = system: SF-539 CNS
HCT-116 colon = system: HCT-116 colon
LOX IMVI melanoma = system: LOX IMVI melanoma
HS 578T breast = system: HS 578T breast
MALME-3M melanoma = system: MALME-3M melanoma
ACHN renal = system: ACHN renal
SW-620 colon = system: SW-620 colon
CAKI-1 renal = system: CAKI-1 renal
U251 CNS = system: U251 CNS
HOP-92 NSCLC = system: HOP-92 NSCLC
KM12 colon = system: KM12 colon
A549 NSCLC = system: A549 NSCLC
OVCAR-3 ovarian = system: OVCAR-3 ovarian
RPMI-8226 leukemia = system: RPMI-8226 leukemia
786-0 renal = system: 786-0 renal
BT-549 breast = system: BT-549 breast
NCI-H522 lung = system: NCI-H522 lung
SF-295 CNS = system: SF-295 CNS
MDA-MB-435 = system: MDA-MB-435
M14 melanoma = system: M14 melanoma
TK-10 renal = system: TK-10 renal
NCI-H460 lung = system: NCI-H460 lung
SNB-75 CNS = system: SNB-75 CNS
UO-31 renal = system: UO-31 renal
NCI-H226 lung = system: NCI-H226 lung
SK-MEL-2 melanoma = system: SK-MEL-2 melanoma
HCC-2998 colon = system: HCC-2998 colon
HCT-15 colon = system: HCT-15 colon
UACC-62 melanoma = system: UACC-62 melanoma
SK-MEL-5 melanoma = system: SK-MEL-5 melanoma
COLO 205 colon = system: COLO 205 colon
MOLT-4 leukemia = system: MOLT-4 leukemia
HOP-62 NSCLC = system: HOP-62 NSCLC
OVCAR-4 ovarian = system: OVCAR-4 ovarian
RXF 393 renal = system: RXF 393 renal
SK-OV-3 ovarian = system: SK-OV-3 ovarian
CCRF-CEM leukemia = system: CCRF-CEM leukemia

Q: For `C=C1CC/C=C(\C)CCC[C@H](C)[C@@H](O)[C@@H]2OC(=O)C(=C)[C@@H]2C[C@H]1O`, which TGI (SK-MEL-28 melanoma) is on record?
A: 22.2 µM

Q: And the TGI (PC-3 prostate)?
A: 23.1 µM

Q: And the TGI (K-562 leukemia)?
A: > 38.8 µM

Q: What about the TGI (OVCAR-5 ovarian) of the same molecule?
A: 39.2 µM

Q: And the TGI (UACC-257 melanoma)?
A: 31.9 µM

Q: What about the TGI (MDA-N) of the same molecule?
A: 35.9 µM

Q: And the TGI (HL-60(TB) leukemia)?
A: > 100 µM

Q: What about the TGI (MCF7 breast) of the same molecule?
A: > 42.7 µM

Q: And the TGI (SNB-19 CNS)?
A: 28.7 µM

Q: And the TGI (T-47D breast)?
A: 47.1 µM

Q: What about the TGI (SN12C renal) of the same molecule?
A: 42 µM

Q: And the TGI (SR leukemia)?
A: > 100 µM

Q: What about the TGI (DU-145 prostate) of the same molecule?
A: 17.8 µM

Q: And the TGI (EKVX NSCLC)?
A: > 42.6 µM

Q: What about the TGI (NCI-H23 lung) of the same molecule?
A: 26.8 µM

Q: And the TGI (HT29 colon)?
A: 15.2 µM

Q: What about the TGI (MDA-MB-231 breast) of the same molecule?
A: 50.5 µM

Q: What about the TGI (OVCAR-8 ovarian) of the same molecule?
A: 16.7 µM

Q: And the TGI (IGROV1 ovarian)?
A: 13.8 µM

Q: And the TGI (NCI/ADR-RES ovarian)?
A: 27.2 µM

Q: What about the TGI (SF-268 CNS) of the same molecule?
A: 23.1 µM

Q: What about the TGI (A498 renal) of the same molecule?
A: > 100 µM

Q: What about the TGI (SF-539 CNS) of the same molecule?
A: 6.94 µM

Q: What about the TGI (HCT-116 colon) of the same molecule?
A: 30.5 µM

Q: What about the TGI (LOX IMVI melanoma) of the same molecule?
A: 25.9 µM

Q: And the TGI (HS 578T breast)?
A: 33.9 µM

Q: What about the TGI (MALME-3M melanoma) of the same molecule?
A: 22.1 µM

Q: And the TGI (ACHN renal)?
A: 9.5 µM

Q: What about the TGI (SW-620 colon) of the same molecule?
A: > 32.4 µM

Q: And the TGI (CAKI-1 renal)?
A: 17 µM

Q: What about the TGI (U251 CNS) of the same molecule?
A: 50.2 µM

Q: What about the TGI (HOP-92 NSCLC) of the same molecule?
A: 7.22 µM

Q: What about the TGI (KM12 colon) of the same molecule?
A: 29.9 µM

Q: And the TGI (A549 NSCLC)?
A: 33.9 µM

Q: What about the TGI (OVCAR-3 ovarian) of the same molecule?
A: 22.6 µM

Q: What about the TGI (RPMI-8226 leukemia) of the same molecule?
A: > 21.9 µM

Q: And the TGI (786-0 renal)?
A: 18.6 µM

Q: What about the TGI (BT-549 breast) of the same molecule?
A: 3 µM

Q: What about the TGI (NCI-H522 lung) of the same molecule?
A: 4.96 µM

Q: What about the TGI (SF-295 CNS) of the same molecule?
A: 32.9 µM

Q: And the TGI (MDA-MB-435)?
A: 17.3 µM

Q: And the TGI (M14 melanoma)?
A: 28.4 µM

Q: And the TGI (TK-10 renal)?
A: 4.5 µM

Q: And the TGI (NCI-H460 lung)?
A: 27.1 µM

Q: And the TGI (SNB-75 CNS)?
A: 24.7 µM

Q: What about the TGI (UO-31 renal) of the same molecule?
A: 19.2 µM

Q: And the TGI (NCI-H226 lung)?
A: 11.5 µM

Q: What about the TGI (SK-MEL-2 melanoma) of the same molecule?
A: 27 µM

Q: And the TGI (HCC-2998 colon)?
A: 50.5 µM

Q: What about the TGI (HCT-15 colon) of the same molecule?
A: 13.1 µM

Q: And the TGI (UACC-62 melanoma)?
A: 25.9 µM

Q: And the TGI (SK-MEL-5 melanoma)?
A: 22.6 µM

Q: And the TGI (COLO 205 colon)?
A: 29.9 µM

Q: What about the TGI (MOLT-4 leukemia) of the same molecule?
A: 9.62 µM

Q: And the TGI (HOP-62 NSCLC)?
A: 30.8 µM

Q: What about the TGI (OVCAR-4 ovarian) of the same molecule?
A: 51.7 µM

Q: And the TGI (RXF 393 renal)?
A: 22.2 µM

Q: And the TGI (SK-OV-3 ovarian)?
A: > 64.1 µM

Q: How did the TGI (SK-MEL-28 melanoma) turn out when `C=C1C(=O)OC2CC(C)C(C(O)CC(C)O)=CCC12` (configuration not stated) was run?
A: 23.1 µM

Q: And the TGI (PC-3 prostate)?
A: 57 µM

Q: What about the TGI (K-562 leukemia) of the same molecule?
A: 37.1 µM

Q: What about the TGI (CCRF-CEM leukemia) of the same molecule?
A: 14.3 µM

Q: What about the TGI (OVCAR-5 ovarian) of the same molecule?
A: 30.7 µM

Q: And the TGI (UACC-257 melanoma)?
A: 29.8 µM

Q: What about the TGI (MDA-N) of the same molecule?
A: 42.3 µM

Q: And the TGI (HL-60(TB) leukemia)?
A: 13.5 µM

Q: And the TGI (MCF7 breast)?
A: 28.1 µM

Q: And the TGI (SNB-19 CNS)?
A: > 100 µM

Q: What about the TGI (T-47D breast) of the same molecule?
A: 23.6 µM

Q: What about the TGI (SN12C renal) of the same molecule?
A: 33.1 µM

Q: And the TGI (SR leukemia)?
A: 29.5 µM

Q: What about the TGI (DU-145 prostate) of the same molecule?
A: 30.4 µM

Q: And the TGI (EKVX NSCLC)?
A: 28.6 µM

Q: What about the TGI (NCI-H23 lung) of the same molecule?
A: 33.3 µM

Q: And the TGI (HT29 colon)?
A: 35.7 µM

Q: And the TGI (MDA-MB-231 breast)?
A: 33.8 µM

Q: What about the TGI (OVCAR-8 ovarian) of the same molecule?
A: 43.8 µM

Q: What about the TGI (IGROV1 ovarian) of the same molecule?
A: 43.4 µM

Q: What about the TGI (NCI/ADR-RES ovarian) of the same molecule?
A: 41 µM

Q: What about the TGI (SF-268 CNS) of the same molecule?
A: 36.4 µM

Q: What about the TGI (A498 renal) of the same molecule?
A: 32.1 µM

Q: And the TGI (SF-539 CNS)?
A: 31.3 µM

Q: And the TGI (HCT-116 colon)?
A: 21.9 µM

Q: What about the TGI (LOX IMVI melanoma) of the same molecule?
A: 25.7 µM

Q: What about the TGI (HS 578T breast) of the same molecule?
A: 62 µM

Q: And the TGI (MALME-3M melanoma)?
A: 21.9 µM

Q: What about the TGI (ACHN renal) of the same molecule?
A: 8.95 µM

Q: And the TGI (SW-620 colon)?
A: 37.6 µM

Q: And the TGI (CAKI-1 renal)?
A: 9.26 µM

Q: What about the TGI (U251 CNS) of the same molecule?
A: 39.4 µM

Q: And the TGI (HOP-92 NSCLC)?
A: 27.8 µM

Q: And the TGI (KM12 colon)?
A: 46.4 µM

Q: And the TGI (A549 NSCLC)?
A: > 80.6 µM

Q: What about the TGI (OVCAR-3 ovarian) of the same molecule?
A: 25.2 µM

Q: And the TGI (RPMI-8226 leukemia)?
A: 34.2 µM

Q: What about the TGI (786-0 renal) of the same molecule?
A: 30.2 µM

Q: And the TGI (BT-549 breast)?
A: 30.2 µM

Q: And the TGI (NCI-H522 lung)?
A: 3.29 µM

Q: What about the TGI (SF-295 CNS) of the same molecule?
A: > 100 µM

Q: And the TGI (MDA-MB-435)?
A: > 59.2 µM

Q: And the TGI (M14 melanoma)?
A: 35 µM

Q: What about the TGI (TK-10 renal) of the same molecule?
A: 23.3 µM

Q: What about the TGI (NCI-H460 lung) of the same molecule?
A: 46.6 µM

Q: What about the TGI (SNB-75 CNS) of the same molecule?
A: 47.2 µM

Q: What about the TGI (UO-31 renal) of the same molecule?
A: 30.7 µM

Q: What about the TGI (NCI-H226 lung) of the same molecule?
A: 72.7 µM

Q: And the TGI (SK-MEL-2 melanoma)?
A: 38.5 µM

Q: And the TGI (HCC-2998 colon)?
A: 33.2 µM

Q: And the TGI (HCT-15 colon)?
A: 41.4 µM

Q: What about the TGI (UACC-62 melanoma) of the same molecule?
A: 44.2 µM

Q: And the TGI (SK-MEL-5 melanoma)?
A: 41.2 µM

Q: And the TGI (COLO 205 colon)?
A: 24.6 µM

Q: And the TGI (MOLT-4 leukemia)?
A: 32.6 µM

Q: And the TGI (HOP-62 NSCLC)?
A: > 74.3 µM

Q: What about the TGI (OVCAR-4 ovarian) of the same molecule?
A: 42.2 µM

Q: And the TGI (RXF 393 renal)?
A: 30.5 µM

Q: And the TGI (SK-OV-3 ovarian)?
A: > 100 µM
